The numbers were not newly measured in publication PMC7886095 (Drug Design, Development and Therapy, 2021), which cites them from elsewhere.

As usually defined, the aqueous solubility is how much of the substance goes into solution per volume.

Turning to `COc1cc(O)c2c(=O)cc(-c3ccc(O)cc3)oc2c1` [GKA, Genkwanin], the aqueous solubility was less than 1 µg/mL.
